Assay results: ChEMBL document CHEMBL5505975, “Design, synthesis and biological evaluation of CDC20 inhibitors for treatment of triple-negative breast cancer” (Eur J Med Chem, 2024)
pIC50: −log10 of the molar value. Activity calls are given as the source filed them. No cut-off for these calls is given here.

Tests used:
[1] = system: A549; assay: Antiproliferative activity against human A549 cells assessed as reduction in cell viability incubated for 96 hrs by MTT assay; conditions: A549, 96 h
[2] = system: MDA-MB-231; assay: Cell cycle arrest in human MDA-MB-231 cells assessed as G1 phase cells at 20 uM incubated for 24 hrs by PI staining based flow cytometric analysis (reference value: 56.7%); assay type: functional
[3] = system: MDA-MB-231; assay: Cell cycle arrest in human MDA-MB-231 cells assessed as G2 phase cells at 20 uM incubated for 24 hrs by PI staining based flow cytometric analysis (reference value: 14.6%); assay type: functional
[4] = system: MDA-MB-231; assay: Cell cycle arrest in human MDA-MB-231 cells assessed as G1 phase cells at 20 uM incubated for 48 hrs by PI staining based flow cytometric analysis (reference value: 56.7%); assay type: functional
[5] = system: MDA-MB-231; assay: Cell cycle arrest in human MDA-MB-231 cells assessed as S phase cells at 20 uM incubated for 48 hrs by PI staining based flow cytometric analysis (reference value: 28.7%); assay type: functional
[6] = system: MDA-MB-231; assay: Cell cycle arrest in human MDA-MB-231 cells assessed as G2 phase cells at 20 uM incubated for 72 hrs by PI staining based flow cytometric analysis (reference value: 14.6%); assay type: functional
[7] = system: MDA-MB-231; assay: Cell cycle arrest in human MDA-MB-231 cells assessed as G1 phase cells at 5 uM incubated for 48 hrs by PI staining based flow cytometric analysis (reference value: 76.7%); assay type: functional
[8] = system: MDA-MB-231; assay: Cell cycle arrest in human MDA-MB-231 cells assessed as S phase cells at 5 uM incubated for 48 hrs by PI staining based flow cytometric analysis (reference value: 16.0%); assay type: functional
[9] = system: MDA-MB-231; assay: Cell cycle arrest in human MDA-MB-231 cells assessed as G2 phase cells at 5 uM incubated for 48 hrs by PI staining based flow cytometric analysis (reference value: 7.3%); assay type: functional
[10] = system: MDA-MB-231; assay: Cell cycle arrest in human MDA-MB-231 cells assessed as S phase cells at 10 uM incubated for 48 hrs by PI staining based flow cytometric analysis (reference value: 16.0%); assay type: functional
[11] = system: MDA-MB-231; assay: Cell cycle arrest in human MDA-MB-231 cells assessed as G1 phase cells at 20 uM incubated for 48 hrs by PI staining based flow cytometric analysis (reference value: 76.7%); assay type: functional
[12] = system: MDA-MB-231; assay: Cell cycle arrest in human MDA-MB-231 cells assessed as S phase cells at 20 uM incubated for 48 hrs by PI staining based flow cytometric analysis (reference value: 16.0%); assay type: functional
[13] = system: MDA-MB-231; assay: Cell cycle arrest in human MDA-MB-231 cells assessed as G2 phase cells at 20 uM incubated for 48 hrs by PI staining based flow cytometric analysis (reference value: 7.3%); assay type: functional
[14] = system: MDA-MB-231; assay: Effect on cell morphology in human MDA-MB-231 cells at 2.5 to 10 uM incubated for 24 hrs by wound healing assay; assay type: functional, cell-based; conditions: dose 2.5-10 µM
[15] = system: MDA-MB-231; assay: Induction of autophagy in human MDA-MB-231 cells assessed as appearance of ring shaped aggregates at 5 to 20 uM incubated for 48 hrs by DAPI staining based immunofluorescence analysis; assay type: functional, cell-based; conditions: dose 5-20 µM
[16] = system: MDA-MB-231; assay: Induction of apoptosis in human MDA-MB-231 cells assessed as late apoptotic cells at 2.5 uM incubated for 48 hrs by Annexin V-FITC/PI staining based flow cytometric analysis (reference value: 1.06%); assay type: functional
[17] = system: MDA-MB-231; assay: Induction of apoptosis in human MDA-MB-231 cells assessed as viable cells at 5 uM incubated for 48 hrs by Annexin V-FITC/PI staining based flow cytometric analysis (reference value: 95.10%); assay type: functional; conditions: read-out: Activity
[18] = system: MDA-MB-231; assay: Induction of apoptosis in human MDA-MB-231 cells assessed as necrotic cells at 5 uM incubated for 48 hrs by Annexin V-FITC/PI staining based flow cytometric analysis (reference value: 1.63%); assay type: functional
[19] = system: MDA-MB-231; assay: Induction of apoptosis in human MDA-MB-231 cells assessed as viable cells at 10 uM incubated for 48 hrs by Annexin V-FITC/PI staining based flow cytometric analysis (reference value: 95.10%); assay type: functional; conditions: read-out: Activity
[20] = system: MDA-MB-231; assay: Induction of apoptosis in human MDA-MB-231 cells assessed as late apoptotic cells at 20 uM incubated for 48 hrs by Annexin V-FITC/PI staining based flow cytometric analysis (reference value: 1.06%); assay type: functional
[21] = Toxicity in female BALB/C mouse implanted with mouse 4T1 cells assessed as liver damage at 20 to 50 mg/kg, iv administered every two days for 21 days by H and E staining based analysis; assay type: organism-based; conditions: in vivo, 504 h, dose 20-50 mg/kg, time 21 day
[22] = Toxicity in female BALB/C mouse implanted with mouse 4T1 cells assessed as spleen damage at 20 to 50 mg/kg, iv administered every two days for 21 days by H and E staining based analysis; assay type: organism-based; conditions: in vivo, 504 h, dose 20-50 mg/kg, time 21 day
[23] = Toxicity in female BALB/C mouse implanted with mouse 4T1 cells assessed as kidney damage at 20 to 50 mg/kg, iv administered every two days for 21 days by H and E staining based analysis; assay type: organism-based; conditions: in vivo, 504 h, dose 20-50 mg/kg, time 21 day
[24] = Toxicity in female BALB/C mouse implanted with mouse 4T1 cells assessed as heart damage at 20 to 50 mg/kg, po administered every two days for 21 days by H and E staining based analysis; assay type: organism-based; conditions: in vivo, 504 h, dose 20-50 mg/kg, time 21 day
[25] = Toxicity in female BALB/C mouse implanted with mouse 4T1 cells assessed as liver damage at 20 to 50 mg/kg, po administered every two days for 21 days by H and E staining based analysis; assay type: organism-based; conditions: in vivo, 504 h, dose 20-50 mg/kg, time 21 day
[26] = Toxicity in female BALB/C mouse implanted with mouse 4T1 cells assessed as change in serum ALT level at 20 to 50 mg/kg, po administered every two days for 21 days; assay type: organism-based; conditions: in vivo, 504 h, dose 20-50 mg/kg, time 21 day
[27] = Toxicity in female BALB/C mouse implanted with mouse 4T1 cells assessed as change in serum BUN level at 20 to 50 mg/kg, po administered every two days for 21 days; assay type: organism-based; conditions: in vivo, 504 h, dose 20-50 mg/kg, time 21 day
[28] = Toxicity in female BALB/C mouse implanted with mouse 4T1 cells assessed as change in serum ALT level at 20 to 50 mg/kg, iv administered every two days for 21 days; assay type: organism-based; conditions: in vivo, 504 h, dose 20-50 mg/kg, time 21 day
[29] = Toxicity in female BALB/C mouse implanted with mouse 4T1 cells assessed as change in serum CREA level at 20 to 50 mg/kg, iv administered every two days for 21 days; assay type: organism-based; conditions: in vivo, 504 h, dose 20-50 mg/kg, time 21 day
[30] = Toxicity in female BALB/C mouse implanted with mouse 4T1 cells assessed as change in serum LDH level at 20 to 50 mg/kg, iv administered every two days for 21 days; assay type: organism-based; conditions: in vivo, 504 h, dose 20-50 mg/kg, time 21 day
[31] = Toxicity in female BALB/C mouse implanted with mouse 4T1 cells assessed as change in serum CK level at 20 to 50 mg/kg, iv administered every two days for 21 days; assay type: organism-based; conditions: in vivo, 504 h, dose 20-50 mg/kg, time 21 day
[32] = Toxicity in female BALB/C mouse implanted with mouse 4T1 cells assessed as effect on lymphocytes at 20 to 50 mg/kg, po administered every two days for 21 days by routine blood analysis; assay type: organism-based; conditions: in vivo, 504 h, dose 20-50 mg/kg, time 21 day
[33] = Toxicity in female BALB/C mouse implanted with mouse 4T1 cells assessed as change in RBC level at 20 to 50 mg/kg, iv administered every two days for 21 days by routine blood analysis; assay type: organism-based; conditions: in vivo, 504 h, dose 20-50 mg/kg, time 21 day
[34] = Toxicity in female BALB/C mouse implanted with mouse 4T1 cells assessed as effect on monocytes at 20 to 50 mg/kg, iv administered every two days for 21 days by routine blood analysis; assay type: organism-based; conditions: in vivo, 504 h, dose 20-50 mg/kg, time 21 day

CCC(=O)NC(n1cnc2c(Nc3cc(OC)c(OC)c(OC)c3)nc(N)nc21)C(Cl)(Cl)Cl (centres undefined)
pIC50 [1]: 5.19 | Activity [2]: 32.3% | Activity [3]: 40.1% | Activity [4]: 41% | Activity [5]: 13.3% | Activity [6]: 51.1% | Activity [7]: 62.8% | Activity [8]: 28.6% | Activity [9]: 8.6% | Activity [10]: 11.9% | Activity [11]: 59% | Activity [12]: 11.6% | Activity [13]: 29.4% | Activity [14]: inactive | Activity [15]: Active | Activity [16]: 1.4% | viability at 5 µM [17]: 92.8% | Activity [18]: 0.96% | viability at 10 µM [19]: 92.3% | Activity [20]: 1.96% | Activity [21]: Non-Toxic | Activity [22]: Non-Toxic | Activity [23]: Non-Toxic | Activity [24]: Non-Toxic | Activity [25]: Non-Toxic | Activity [26]: Non-Toxic | Activity [27]: Non-Toxic | Activity [28]: Non-Toxic | Activity [29]: Non-Toxic | Activity [30]: Non-Toxic | Activity [31]: Non-Toxic | Activity [32]: Non-Toxic | Activity [33]: Non-Toxic | Activity [34]: Non-Toxic
